Measured values: PubChem BioAssay (NCI)
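Exposure lasted 48 hours, with cells grown in 96-well plates and compounds tested at five concentrations. GI50 marks 50% less growth. The concentration for full growth arrest is given as TGI.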 Numbered stars: 1 amine (or outer) side, 2 acyl side, 3 side chain; on linkers, the order of the positions; unused ones are H or OH. Bridge positions count the residues as written; N and C are the ends. Square brackets hold non-standard residues; d marks the D form. Peptide text beside a SMILES is read from it. I, II: the chains in the order shown. Actinocin(1to9) = Cc1c2oc3c(C)ccc(C(=O)[*:2])c3nc-2c(C(=O)[*:1])c(N)c1=O; NMeV = CN[CH](C(=O)O)C(C)C; Sar = CNCC(=O)O

Tests used:
Test in all cases: NCI anticancer screen, dose series, 48 h
NCI-H460 lung = system: NCI-H460 lung
OVCAR-8 ovarian = system: OVCAR-8 ovarian
MDA-MB-435 = system: MDA-MB-435
M14 melanoma = system: M14 melanoma
TK-10 renal = system: TK-10 renal
OVCAR-3 ovarian = system: OVCAR-3 ovarian
MCF7 breast = system: MCF7 breast
HT29 colon = system: HT29 colon
SK-MEL-2 melanoma = system: SK-MEL-2 melanoma

| Structure (SMILES) | TGI (NCI-H460 lung) [µM] | TGI (OVCAR-8 ovarian) [µM] | TGI (MDA-MB-435) [µM] | TGI (M14 melanoma) [µM] | TGI (TK-10 renal) [µM] | TGI (OVCAR-3 ovarian) [µM] | TGI (MCF7 breast) [µM] | TGI (HT29 colon) [µM] | TGI (SK-MEL-2 melanoma) [µM] | GI50 (NCI-H460 lung) [µM] | GI50 (OVCAR-8 ovarian) [µM] | GI50 (MDA-MB-435) [µM] | GI50 (M14 melanoma) [µM] | GI50 (TK-10 renal) [µM] | GI50 (MCF7 breast) [µM] | GI50 (SK-MEL-2 melanoma) [µM] |
| --- | --- | --- | --- | --- | --- | --- | --- | --- | --- | --- | --- | --- | --- | --- | --- | --- |
| Cc1c(C=C(C#N)C#N)c(=O)n(C)c(=O)n1C | > 100 | > 100 | > 100 | > 100 | > 100 | > 100 | > 100 | > 100 | > 100 | – | – | – | – | – | – | – |
| Cn1c2c(c3c(=O)[nH]ncc31)CCCc1ccccc1-2 | 67.7 | 83.5 | 50.4 | > 100 | > 100 | 86.4 | 53 | > 100 | 40.2 | – | – | – | – | – | – | – |
| COc1ccc(-c2cc(-c3ccccc3)nc(N)n2)c(O)c1 | > 100 | > 100 | > 100 | > 100 | > 100 | > 100 | > 100 | > 100 | > 100 | – | – | – | – | – | – | – |
| C/C(CC(O)(C(F)(F)F)C(F)(F)F)=N/Nc1ccc([N+](=O)[O-])cc1[N+](=O)[O-] | > 10 | > 10 | > 10 | > 10 | > 10 | 8.33 | > 10 | > 10 | 6.11 | – | – | – | – | – | – | – |
| OCC1(CNc2cc(Cl)ncn2)CCC1 | > 100 | > 100 | > 100 | – | > 100 | > 100 | > 100 | > 100 | > 100 | – | – | – | – | – | – | – |
| N#C/C=C\c1ccc(-c2cc(C(F)(F)F)cc(C(F)(F)F)c2)o1 | > 100 | 58.5 | 18.5 | > 100 | – | > 100 | > 100 | > 100 | 41 | – | – | – | – | – | – | – |
| NNC(=O)CSc1nnc(CCCCCCCCc2nnc(SCC(=O)NN)o2)o1 | > 100 | > 100 | > 100 | > 100 | > 100 | – | > 100 | > 100 | > 100 | – | – | – | – | – | – | – |
| NC(=O)N/N=C/c1ccccc1O | > 100 | > 100 | > 100 | > 100 | > 100 | – | > 100 | > 100 | > 100 | – | – | – | – | – | – | – |
| CC(C)[Si](OC1=CCC[C@H]2NC(=O)[C@@H](Cc3ccc([N+](=O)[O-])cc3)[C@@]12C)(C(C)C)C(C)C | 10.5 | 24.4 | – | 26.2 | 23.9 | 11.7 | 10.7 | 5.13 | 28 | – | – | – | – | – | – | – |
| C=[N+](CNC(=O)CNC(=O)C(Cc1ccccc1)NC(=O)OC(C)(C)C)C(=O)CNC(=O)C(Cc1ccccc1)NC(=O)OC(C)(C)C (stereo not given) | > 100 | > 100 | > 100 | > 100 | – | > 100 | > 100 | > 100 | > 100 | – | – | – | – | – | – | – |
| COc1cc(C2S/C(=C/c3ccccc3)C(=O)N2c2ccccn2)cc(OC)c1OC (stereo not given) | – | 31.2 | 29.3 | 31.8 | > 100 | 44.4 | > 57.9 | > 47 | > 71.3 | – | – | – | – | – | – | – |
| Cc1ccc(S(=O)(=O)NC(=O)NCC(=O)O)cc1 | > 100 | > 100 | – | > 100 | > 100 | – | > 100 | > 100 | > 100 | – | – | – | – | – | – | – |
| CC(C)(C)c1cc2c(O)c(c1)COCc1cc(C(C)(C)C)cc(c1O)COCc1cc(C(C)(C)C)cc(c1O)COC2 | > 100 | > 100 | > 100 | > 100 | > 100 | > 100 | > 100 | – | > 100 | – | – | – | – | – | – | – |
| CCCC(=O)Oc1cc(OC(=O)CCC)c2c(C)cc(=O)oc2c1 | – | > 100 | > 100 | > 100 | > 100 | > 100 | > 100 | > 100 | > 100 | – | – | – | – | – | – | – |
| Cc1cc2nc3c(C#N)c4c(c(Nc5ccc(Cl)cc5)n3c2cc1C)CCC4 | – | 35.5 | > 100 | – | 40.9 | 35.4 | – | 32 | – | – | – | – | – | – | – | – |
| COc1ccc(/C=C/C(=O)/C=C(/C=C/c2ccc(OC)c(OC)c2OC)OB(F)F)c(OC)c1OC | 3.52 | > 100 | > 100 | > 100 | > 100 | – | > 100 | – | 8.09 | 1.66 | 1.16 | 2.15 | 2.74 | 9.03 | 0.502 | 2.36 |
| CC(C)[C@H]1NC(=O)[C@H]2N=C(O[C@@H]2C)[C@@H]2CCCN2C(=O)[C@H](Cc2ccccc2)NC(=O)[C@@H]2COC(=N2)[C@@H](Cc2ccccc2)NC(=O)[C@@H]2COC1=N2 | – | > 100 | > 100 | > 100 | > 100 | > 100 | > 100 | > 100 | > 100 | – | – | – | – | – | – | – |
| C[Si](C)(C)C#CCOC=C1CC1 | > 100 | > 100 | – | > 100 | > 100 | – | > 100 | > 100 | > 100 | – | – | – | – | – | – | – |
| O=C(NC(Cc1ccccc1)P(=O)(O)c1ccccc1)OCc1ccccc1 (stereo not given) | > 100 | > 100 | > 100 | > 100 | > 100 | > 100 | > 100 | > 100 | – | – | – | – | – | – | – | – |
| CCC(C)C1NC(=O)C(NC(=O)c2c3nc4c(C(=O)NC5C(=O)NC(C(C)C)C(=O)N6CCCC6C(=O)N(C)CC(=O)N(C)C(C(C)C)C(=O)OC5C)ccc(C)c4oc-3c(C)c(=O)c2N)C(C)OC(=O)C(C(C)C)N(C)C(=O)CN(C)C(=O)C2CCCN2C1=O (stereo not given) (I: TIP[Sar][NMeV] / II: TVP[Sar][NMeV]; ester I:1-I:C, II:1-II:C; linker I:N-II:N via Actinocin(1to9); configuration not given here) | – | – | 0.0302 | 0.161 | 17.9 | – | > 100 | – | 0.111 | – | – | – | – | – | – | – |
| CC1CC/C(=C\c2ccc(F)cc2)C2=C1C(c1ccc(F)cc1)n1c(s/c(=C\c3ccc(Cl)cc3)c1=O)=N2 (stereo not given) | – | > 100 | > 100 | > 100 | > 100 | – | > 100 | > 100 | > 100 | – | – | – | – | – | – | – |
| O=c1[nH]c(=S)c2[nH]c(=O)n(-c3ccccc3)c2[nH]1 | > 100 | > 100 | > 100 | > 100 | > 100 | > 100 | – | > 100 | > 100 | – | – | – | – | – | – | – |
| COc1cc(OC)cc(Oc2nc3c(N)cc(C(F)(F)F)cc3nc2-c2ccccc2)c1 | > 100 | > 100 | 66.5 | > 100 | > 100 | – | 99 | > 100 | 55.5 | – | – | – | – | – | – | – |
